The results in this text go back to patent US10405548B2, “Fungicidal compositions” (Syngenta Crop Protection, LLC, priority 2004, dated 2019).

Type in all cases: cell-based
Experiment [1] deals with Ustilago nuda. The experiment in a line: Fungal growth assay, Control of Ustilago nuda (PDB, 96-well, 24° C., photometric, 48 hrs).
The test system of experiment [2] is Microdochium nivale. The experiment in a line: Fungal growth assay, Control of Microdochium nivale (PDB, 96-well, 24° C., photometric, 72 hrs).
Experiment [3] relates to Pyrenophora graminea. The experiment in a line: Fungal growth assay, Control of Pyrenophora graminea (PDB, 96-well, 24° C., photometric, 72 hrs).
Experiment [4] relates to Gäumannomyces graminis. The experiment in a line: Fungal growth assay, Control of Gaumannomyces graminis (PDB, 96-well, 24° C., photometric, 72 hrs).
In experiment [5] the test system is Rhizoctonia solani. The experiment in a line: Fungal growth assay, Control of Rhizoctonia solani (PDB, 96-well, 24° C., photometric, 48 hrs).
Experiment [6] deals with Septoria tritici. The experiment in a line: Fungal growth assay, Control of Septoria tritici (PDB, 96-well, 24° C., photometric, 72 hrs).
The subject of experiment [7] is Fusarium graminearum.

Values joined by “and” are separate entries in the source; they are usually repeats but may differ in a detail not shown here. Identical values can stand only once. Like-named read-outs stand apart in the source and are kept apart here.

Turning to `Cn1cc(C(=O)Nc2ccccc2[C@@H]2C[C@H]2C2CC2)c(C(F)F)n1` (racemic) [Racemic cpd Ia], the “Observed control in % (% Cobs)” value in experiment [1] (0.0001 ppm) came to 5%; in experiment [1] (0.0003 ppm), 0%; in experiment [1] (0.002 ppm) it was 0%; in experiment [1] (0.007 ppm), 15%; in experiment [2] (0.0003 ppm) it was 0%; in experiment [2] (0.0008 ppm), 0%. In addition, the “Observed control in % (% Cobs)” value in experiment [2] (0.002 ppm) was 0%; in experiment [2] (0.0025 ppm), 1% and 0%; in experiment [2] (0.007 ppm), 2%; in experiment [2] (0.0074 ppm) it was 0%; in experiment [2] (0.067 ppm), 0% and 4% and 2%; in experiment [3] (0.0003 ppm) it was 1%. The “Observed control in % (% Cobs)” value in experiment [3] (0.0008 ppm) worked out at 6%; in experiment [3] (0.002 ppm), 0%; in experiment [3] (0.0074 ppm), 4%; in experiment [3] (0.022 ppm), 0%; in experiment [3] (0.0667 ppm), 20%; in experiment [3] (0.067 ppm), 1%. Besides, the “Observed control in % (% Cobs)” value in experiment [3] (1.8 ppm) is 11% and 1% and 6%; in experiment [4] (0.0003 ppm), 0%; in experiment [4] (0.0008 ppm), 0%; in experiment [4] (0.002 ppm), 2%; in experiment [4] (0.007 ppm), 0%; in experiment [4] (0.2 ppm), 0%. Besides, the “Observed control in % (% Cobs)” value was found to be 3% in experiment [5] (0.0001 ppm); 8% in experiment [5] (0.0008 ppm); 4% in experiment [5] (0.0025 ppm); 4% in experiment [5] (0.007 ppm); 0% in experiment [5] (0.0074 ppm); 0% in experiment [6] (0.0001 ppm). The “Observed control in % (% Cobs)” value in experiment [6] (0.0003 ppm) was 2% and 1%; in experiment [6] (0.007 ppm) it was 0%; in experiment [6] (0.0074 ppm), 0%; in experiment [6] (0.022 ppm), 0%; in experiment [6] (0.067 ppm), 4%; in experiment [7] (0.0001 ppm), 0%. In addition, the “Observed control in % (% Cobs)” value in experiment [7] (0.0008 ppm) is 0%; in experiment [7] (0.007 ppm), 0%; in experiment [7] (0.0074 ppm), 0%; in experiment [7] (0.022 ppm) it was 0%; in experiment [7] (0.0667 ppm), 7%; in experiment [7] (0.067 ppm), 4% and 10%. Also, the “Observed control in % (% Cobs)” value in experiment [7] (0.2 ppm) was found to be 7%; in experiment [7] (0.6 ppm) it was 12%; in experiment [7] (1.8 ppm), 18%.
As for `CO/C=C(/C(=O)OC)c1ccccc1Oc1cc(Oc2ccccc2C#N)ncn1` [Azoxystrobin, reference compound], the “Observed control in % (% Cobs)” value in experiment [4] (0.002 ppm) is on record as 11%.
For the compound `CC(C1CC1)C(O)(Cn1cncn1)c1ccc(Cl)cc1` (centres unmarked) [Cyproconazole, reference compound], the “Observed control in % (% Cobs)” value came out at 0% in experiment [2] (0.2 ppm); 0% in experiment [2] (0.6 ppm); 9% in experiment [2] (1.8 ppm); 4% in experiment [3] (0.022 ppm); 19% in experiment [3] (0.2 ppm); 28% in experiment [3] (0.6 ppm). Also, the results for the “Observed control in % (% Cobs)” value in experiment [7] (0.002 ppm), in experiment [7] (0.022 ppm) and in experiment [7] (0.2 ppm) were 5%, 1% and 0%, respectively.
Regarding `CC1COC(Cn2cncn2)(c2ccc(Oc3ccc(Cl)cc3)cc2Cl)O1` (centres unmarked) [Difenoconazole, reference compound], the “Observed control in % (% Cobs)” value in experiment [1] (0.002 ppm) is given as 2%; in experiment [2] (0.007 ppm), 4%; in experiment [2] (0.2 ppm), 1%; in experiment [2] (0.6 ppm), 13%; in experiment [3] (0.007 ppm) it was 0%; in experiment [3] (0.022 ppm) it was 15%. In addition, the results for the “Observed control in % (% Cobs)” value in experiment [3] (0.067 ppm) and in experiment [3] (0.2 ppm) were 23% and 51%, respectively.
On to `N#Cc1c[nH]cc1-c1cccc2c1OC(F)(F)O2` [Fludioxonil, reference compound], for which the “Observed control in % (% Cobs)” value in experiment [1] (0.002 ppm) is recorded as 0%; in experiment [1] (0.007 ppm) it was 0%; in experiment [1] (0.022 ppm), 21%; in experiment [2] (0.002 ppm), 0%; in experiment [2] (0.007 ppm) it was 0%; in experiment [2] (0.022 ppm), 0%. In addition, the “Observed control in % (% Cobs)” value was found to be 3% in experiment [2] (0.067 ppm); 7% in experiment [3] (0.002 ppm); 0% in experiment [5] (0.002 ppm); 6% in experiment [5] (0.007 ppm); 0% in experiment [5] (0.022 ppm); 0% in experiment [5] (0.067 ppm). The “Observed control in % (% Cobs)” value in experiment [6] (0.002 ppm) is given as 0%; in experiment [6] (0.067 ppm), 9%; in experiment [7] (0.007 ppm), 1%; in experiment [7] (0.022 ppm) it was 6%; in experiment [7] (0.067 ppm), 39%.
As for `c1ccc2[nH]c(-c3cscn3)nc2c1` [Thiabendazole, reference compound], the “Observed control in % (% Cobs)” value in experiment [3] (0.0025 ppm) is 0%; in experiment [3] (0.0223 ppm), 0%; in experiment [5] (0.0074 ppm), 0%; in experiment [5] (0.023 ppm) it was 7%; in experiment [5] (0.2 ppm), 12%; in experiment [5] (0.6 ppm), 13%. Further, the “Observed control in % (% Cobs)” value in experiment [6] (0.0223 ppm) worked out at 0%; in experiment [6] (0.067 ppm) it was 0%; in experiment [6] (0.6 ppm) it was 3%; in experiment [6] (1.8 ppm) it was 1%; in experiment [7] (0.0025 ppm) it was 1%; in experiment [7] (0.0223 ppm), 0%.
